Ends that are not written are not given here.
What was measured:
[1] = tested on: engineered soluble NisP; experiment: Enzyme kinetic assay of NisP cleavage of prenisin variants (Lineweaver–Burk, RP-HPLC); format: biochemical, Lactococcus lactis; conditions: for Kcat/Km in comparison, in words: among the four prenisin variants, or vs literature
Procedure: In order to investigate the substrate specificity and kinetic parameters of NisP, a set of mutants of P4-P1 was created. We used wild-type prenisin (ASPR), nis-Peng (VSLR), nis-Thrombin (AVPR), and nis-Factor Xa (IEGR) as substrates. The concentration of NisP was determined by the BCA assay with bovine serum albumin as standard. The conditions of cleavage reaction were optimized with 100 mM Tris buffer containing 5 mM CaCl2 (pH 6.0). The reaction was stopped at the indicated times adding TFA to a final concentration of 1%. The reaction was performed in 100 μl with 6.5 ng/ml NisP at 37°C. 1% TFA was added to terminate the reaction at 5 different time points (5, 15, 30, 45, and 60 min). All the samples were analyzed by analytical RP-HPLC as indicated before (Mu et al., [2015]) and measuring the absorbance at 205 nm. For each substrate concentration, the initial velocity was calculated on the basis of the peak area of released nisin vs. time. The kinetic parameters were determined by fitting the calculated enzyme activities at different substrate concentrations (ranging from 1 to 25 μM) to a linear regression curve on Lineweaver–Burk double reciprocal plot (Lineweaver and Burk, [1934]).

[2] = tested on: NisP; experiment: Cleavage of nisin mutants by NisP in crude supernatants or purified peptide, masses by MALDI-TOF; format: biochemical, Lactococcus lactis; conditions: His-tagged purified NisP, overnight 37°C, ratio 1000:1, culture pH (4.5–5.0) or pH 6.0, MALDI-TOF
Procedure: Alternatively, supernatants containing nisin mutant peptides produced after induction were divided into two fractions; one in which the pH was adjusted to 6.0 and the other one where the pH was the actual fermentation pH. They were incubated overnight at 37°C with or without His-tagged purified NisP at a ratio of 1000:1. After the incubation, the supernatants were precipitated using TCA and resuspended in 1/20 volume 0.05% acetic acid. For the mutants that were produced in lower amounts, larger volumes were induced and the peptides were purified by cationic exchange chromatography as described before and separated by reverse phase chromatography using a Jupiter 4 μm Proteo 90 Å 250 × 4.6 mm C12 analytical column (Phenomenex). The column was equilibrated in 20% organic solvent (acetonitrile 0.1% TFA) before the sample injection. It was washed for 5 min before applying a linear gradient from 20 to 50% organic solvent in 20 min. 1 μl of each collected peak was used for mass-spectrometry determination.
Mass spectrometry analysis of the samples was performed by matrix-assisted laser desorption/ionization (MALDI) time-of-flight (ToF) in an ABI Voyager DE Pro (Applied Biosystems) operating in linear mode as previously described using external calibration (van Heel et al., [2013]). Briefly, 1 μl sample was spotted, dried and washed with 5 μL Milli-Q water, on the target. Next, 1 μl of α-cyano-4-hydroxycinnamic acid 5 mg/ml (Sigma-Aldrich) was spotted on the sample.
We designed a set of nisin mutants to investigate the specificity of NisP (Figure 4). For all these mutants, supernatants were collected after induction and divided into three fractions. NisP was added to two of these fractions, one maintaining the pH of the culture (4.5–5.0) and the other fraction was adjusted to pH 6.0. The third fraction was used as an untreated control. After cleavage, the masses of the peptides were monitored by MALDI-TOF (Table 2).

[3] = tested on: L. lactis NZ9000 (pNZnisP-8H); experiment: Antimicrobial activity of purified prelantibiotics against NisP producing sensor strain; format: cell-based, Lactococcus lactis; conditions: no NisP, data not shown
Procedure: Activity tests were performed by well-diffusion assay as indicated by van Heel et al. ([2013]). L. lactis NZ9000 transformed with the appropriate plasmids or Micrococcus flavus were used as sensor strains as specified in each figure. The cleavage of nisin by NisP after SDS-PAGE was monitored washing the gel according to Bhunia et al. ([1987]) and covering with an overlay of GM17 soft agar inoculated with NZ9000 (pIL3BTC pNZnisA-E3) induced with 1 ng/ml nisin. The overlay was incubated for 16 h, after which the presence of inhibition zones was evaluated.
The substrate tolerance of soluble NisP was tested using a set of different lantibiotics. These were produced using the nisin modification machinery encoded in NZ9000 (pIL3BTC pNZE3-mutant) and purified by cationic exchange chromatography. For this purpose, NZ9000 (pNZ-nisP-8H) was used as a sensor strain and tested using gallidermin (van Heel et al., [2013]) and two lantibiotics detected in the genome of Streptococcus pneumoniae, PneA1 and PneA2 encoded in the genes spr1765 and spr1766, respectively, which were heterologously expressed in L. lactis fused to the nisin leader peptide (Majchrzykiewicz et al., [2010]) (Figure 5). […] The activity was restored when a strain producing soluble NisP was employed.
Figure 5 Antimicrobial activity of purified modified lantibiotics gallidermin, 1215 and 1268 against L. lactis NZ9000 (pNZnisP-8H). […]

[4] = tested on: sensor bacteria; conditions: only antimicrobial activity as evidence, ref Kuipers et al., [1995]; cited from earlier work
Description: It was anticipated that the binding of dehydrobutyrine in position P2′ was less important than the interaction of Ile in position P1′ with a hydrophobic groove in NisP (Siezen et al., [1995]). Some mutants like I1W were previously shown to be cut by NisP using only the antimicrobial activity as evidence (Kuipers et al., [1995]). […] We could observe that an ...

[5] = tested on: prenisin; conditions: cell extracts of induced E. coli, ref van der Meer et al., [1993]; cited from earlier work
Description: During the production of nisin, the protease NisP is exported and anchored to the cell wall in a sortase-mediated manner. In previous attempts to characterize the specificity of NisP, the in vivo cleavage was based on the detection of the antimicrobial activity and the detection of mature lantibiotic compared to that of the prelantibiotic (van der Meer et al., [1994]). The activity in vitro could be confirmed using membrane preparations of cells expressing NisP bound to the cell wall, which limited the assays. Therefore, we engineered a soluble NisP variant that could facilitate this task. Our ...

[6] = 100 mM Tris 5 mM CaCl2 pH 6.0, 37°C, 6.5 ng/ml NisP, substrate 1 to 25 μM, Lineweaver–Burk, mean value ± standard deviation

Molecule	Kcat/Km (catalytic efficiency) ([1]; 100 mM Tris 5 mM CaCl2 pH 6.0, 37°C, 6.5 ng/ml NisP)	Km ([1]; 100 mM Tris 5 mM CaCl2 pH 6.0, 37°C, 6.5 ng/ml NisP, substrate 1 to 25 μM, 5-60 min, RP-HPLC 205 nm, Lineweaver–Burk, mean value ± standard deviation)	Kcat [1, 6]	Vmax [1, 6]	Kcat/Km in comparison, in words ([1]; listed as wild-type nisin)	Kcat/Km in comparison, in words ([1]; listed as wild-type prenisin (ASPR))	Cleavage by NisP [2]	Antimicrobial activity in the absence of NisP [3]	Cleavage by NisP (earlier work) [4]	Activation of prenisin [5]
WT Prenisin (ASPR): fully modified nisin with its leader peptide (ASPR cleavage site); inactive until leader is removed (MSTKDFNLDLVSVSKKDSGASPRITSISLCTPGCKTGALMGCNMKTATCHCSIHVSK; not fully specified (bridges); cysteine pairing not given here; also: fully modified nisin, modifications not placed; UniProt P13068 1-57, looked up)	1.71e+06 M⁻¹ s⁻¹	0.73 ± 0.08 µM	1.25 ± 0.07 s⁻¹	1.79 ± 0.10 µmol/mg/min	in line with previous results in literature	highest catalytic efficiency	fully cleaved	none of the prelantibiotics tested, not even prenisin, was active		
nisin I1W: Nisin I1W mutant (MSTKDFNLDLVSVSKKDSGASPRWTSISLCTPGCKTGALMGCNMKTATCHCSIHVSK; ends and bridges not checked; cysteine pairing not given here; UniProt P13068 1-57, looked up, variant I1W)							fully processed		cut by NisP	
cell wall attached NisP: full length NisP expressed in E. coli (van der Meer et al., 1993) (protein, UniProt Q07596 1-682, looked up, full-length) MKKILGFLFIVCSLGLSATVHGETTNSQQLLSNNINTELINHNSNAILSSTEGSTTDSINLGAQSPAVKSTTRTELDVTGAAKTLLQTSAVQKEMKVSLQETQVSSEFSKRDSVTNKEAVPVSKDELLEQSEVVVSTSSIQKNKILDNKKKRANFVTSSPLIKEKPSNSKDASGVIDNSASPLSYRKAKEVVSLRQPLKNQKVEAQPLLISNSSEKKASVYTNSHDFWDYQWDMKYVTNNGESYALYQPSKKISVGIIDSGIMEEHPDLSNSLGNYFKNLVPKGGFDNEEPDETGNPSDIVDKMGHGTEVAGQITANGNILGVAPGITVNIYRVFGENLSKSEWVARAIRRAADDGNKVINISAGQYLMISGSYDDGTNDYQEYLNYKSAINYATAKGSIVVAALGNDSLNIQDNQTMINFLKRFRSIKVPGKVVDAPSVFEDVIAVGGIDGYGNISDFSNIGADAIYAPAGTTANFKKYGQDKFVSQGYYLKDWLFTTANTGWYQYVYGNSFATPKVSGALALVVDKYGIKNPNQLKRFLLMNSPEVNGNRVLNIVDLLNGKNKAFSLDTDKGQDDAINHKSMENLKESRDTMKQEQDKEIQRNTNNNFSIKNDFHNISKEVISVDYNINQKMANNRNSRGAVSVRSQEILPVTGDGEDFLPALGIVCISILGILKRKTKN										could activate prenisin

— PMC5812297, “Specificity and Application of the Lantibiotic Protease NisP” (Frontiers in Microbiology, 2018)
